Laboratory results as given in the NIST ThermoML archive (doi:10.1016/j.tca.2017.06.023).

Assay: xn = mol fraction of the nth substance listed
Settings: 100 kPa, Liquid; for viscosity: Capillary tube (Ostwald / Ubbelohde) method; for speed of sound: Frequency=3 MHz, Sing-around technique in a fixed-path interferometer; for mass density: Vibrating tube method

CC(=O)N(C)C [N,N-dimethylethanamide] + CC(C)O
Settings | mass density, 283.15 K [kg/m3] | mass density, 298.15 K [kg/m3] | speed of sound, 283.15 K [m/s] | speed of sound, 298.15 K [m/s] | viscosity, 283.15 K [mPa·s] | viscosity, 298.15 K [mPa·s]
x1 = 0.0551 | 803.7 | 791.24 | 1214.1 | 1160.6 | 2.752 | 1.793
x1 = 0.1091 | 813.5 | 800.93 | 1234.9 | 1180.6 | 2.354 | 1.598
x1 = 0.2113 | 831.42 | 818.64 | 1271.8 | 1215.9 | 1.896 | 1.355
x1 = 0.3066 | 847.5 | 834.52 | 1303.6 | 1247.4 | 1.643 | 1.214
x1 = 0.4084 | 864.09 | 850.94 | 1336.4 | 1279.7 | 1.476 | 1.117
x1 = 0.5049 | 879.33 | 866.02 | 1366.7 | 1309.3 | 1.392 | 1.057
x1 = 0.6056 | 894.73 | 881.3 | 1398.1 | 1338.8 | 1.305 | 1.017
x1 = 0.7028 | 909.13 | 895.59 | 1427.9 | 1369.3 | 1.272 | 0.993
x1 = 0.8024 | 923.39 | 909.75 | 1458.5 | 1399.3 | 1.246 | 0.977
x1 = 0.8956 | 936.27 | 922.53 | 1486.3 | 1426.5 | 1.213 | 0.956
x1 = 0.9464 | 943.08 | 929.3 | 1501.5 | 1441.3 | 1.205 | 0.949
x1 = 1 | 950.13 | 936.29 | 1516.8 | 1453.7 | 1.168 | 0.93
